Assay [1] deals with MC3T3-E1 (mouse calvarial) osteoblast cells. Nature of the assay: Rescue of sclerostin inhibition of mineralization (total calcium). In kind it is cell-based. Conditions: calcium concentration; for IC100: Mus musculus, MC3T3-E1, read-out: Sclerostin Inhibition of Mineralization, improvement over sclerostin alone. The procedure:
Mineralization (crystalline calcium phosphate formation) represents an in vitro model of bone formation. […] Following the protocol described in Li et al., Compounds were assayed for their ability to rescue the inhibition of mineralization by sclerostin in MC3T3 osteoblast cells.

Another assay has as its target T1, sclerostin (Homo sapiens, UniProt Q9BQB4).
T1 construct: host or cells: human embryonic cells (reporter cells)
T1 sequence (Q9BQB4 24-213): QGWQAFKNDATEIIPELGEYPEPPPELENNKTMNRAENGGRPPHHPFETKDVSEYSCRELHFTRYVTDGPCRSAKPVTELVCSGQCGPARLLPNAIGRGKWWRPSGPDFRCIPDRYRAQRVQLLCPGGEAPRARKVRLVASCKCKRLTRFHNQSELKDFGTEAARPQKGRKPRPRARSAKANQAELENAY
Description: Modulation of sclerostin/Wnt activity (sclerostin inhibition assay): restoring Wnt3a signaling in the presence of sclerostin. Type of assay: cell-based. Conditions: for Sclerostin Inhibition Assay; improvement over sclerostin alone.: IC100 class, Wnt3a signaling in human embryonic cells in presence of sclerostin.

The next assay concerns MC3T3 osteoblast cells. Description: Osteocalcin (OCN) secretion, bone formation marker, ELISA. Type of assay: cell-based, mouse. Conditions: for IC100: Mus musculus. The procedure: Bone formation can also be assayed in vitro or in vivo using a serum marker for bone formation, osteocalcin (OCN), available from Biomedical Tecnhnologies, Inc. (Stoughton, Mass.). Following the manufacturer's protocol for the mouse osteocalcin EIA kit (described at the website www.btiinc.com/page/cata2.html#mouse_osteocalcin), bone formation in MC3T3 osteoblast cells was assayed by measuring the concentration of OCN.
(In general: An ELISA detects its analyte on a solid surface through an enzyme-linked reagent.)

[2] abbreviates: IC100 class, MC3T3 osteoblast cells treated with sclerostin.
The mark [3] stands for this setting: IC100 class, OCN secreted from MC3T3 osteoblast cells treated with sclerostin.
Where [4] appears, read: MC3T3 osteoblast cells, result in words.

Bounds are passed on as bounds.

As for `COc1ccc2c(c1)[nH]c1c(C)cncc12` [Example 41, 7-methoxy-4-methyl-5H-pyrido[4,3-b]indole], the IC100 (in assay [1] (setting [2]); with MC3T3 osteoblast cells (setting [3])) was more than 10 µM each time. For the same compound, the “Sclerostin Inhibition Assay; improvement over sclerostin alone.” value on sclerostin is “+ (+ indicates an IC100 > 10 μM)”.
For `Cc1nccc2c1[nH]c1cc(OC(F)F)ccc12` [Example 45, 7-(difluoromethoxy)-1-methyl-9H-pyrido[3,4-b]indole], the IC100 (in assay [1] (setting [2]); in the assay on MC3T3 osteoblast cells (setting [3])) was less than 10 µM throughout. The “Sclerostin Inhibition Assay; improvement over sclerostin alone.” value at sclerostin is “++ (++ indicates an IC100 < 10 μM)”.
Take `COc1ccc2c3ccnc(C(F)(F)F)c3n(CC(C)N3CCOCC3)c2c1` (stereo not drawn) [Example 28, 4-(1-(7-methoxy-1-(trifluoromethyl)-9H-pyrido[3,4-b]indol-9-yl)propan-2-yl)morpholine]: the IC100 (in assay [1] (setting [2]); with MC3T3 osteoblast cells (setting [3])) was less than 10 µM throughout. In addition, the “Sclerostin Inhibition Assay; improvement over sclerostin alone.” value at sclerostin was “++ (++ indicates an IC100 < 10 μM)”.
Regarding `COc1ccc2c3ccnc(C(F)(F)F)c3n(CCNCCO)c2c1` [Example 34, 2-((2-(7-methoxy-1-(trifluoromethyl)-9H-pyrido[3,4-b]indol-9-yl)ethyl)amino)ethanol], the IC100 (in assay [1] (setting [2]); in the assay on MC3T3 osteoblast cells (setting [3])) was less than 10 µM in each case. Besides, the “Sclerostin Inhibition Assay; improvement over sclerostin alone.” value on sclerostin is “++ (++ indicates an IC100 < 10 μM)”.
As for `COc1ccc2c(c1)[nH]c1c(C)nc(O)cc12` [Example 19, 7-methoxy-1-methyl-9H-pyrido[3,4-b]indol-3-ol], the IC100 (in assay [1] (setting [2]); in the assay with MC3T3 osteoblast cells (setting [3])) was less than 10 µM throughout. In addition, the “Sclerostin Inhibition Assay; improvement over sclerostin alone.” value at sclerostin is listed as “++ (++ indicates an IC100 < 10 μM)”.
With `COc1ccc2c3ccnc(C(F)(F)F)c3n(CCN3CCOCC3C)c2c1` (stereo not drawn) [Example 29, 4-(2-(7-methoxy-1-(trifluoromethyl)-9H-pyrido[3,4-b]indol-9-yl)ethyl)-3-methylmorpholine], the IC100 (in assay [1] (setting [2]); with MC3T3 osteoblast cells (setting [3])) was less than 10 µM each time. Further, at sclerostin, the “Sclerostin Inhibition Assay; improvement over sclerostin alone.” value is on record as “++ (++ indicates an IC100 < 10 μM)”.
On to `OCCN(CCO)CCn1c2cc(O)ccc2c2ccnc(C(F)(F)F)c21` [Example 36, 2,2′-((2-(7-hydroxy-1-(trifluoromethyl)-9H-pyrido[3,4-b]indol-9-yl)ethyl)azanediyl)diethanol], for which the IC100 (in assay [1] (setting [2]); in the assay on MC3T3 osteoblast cells (setting [3])) was more than 10 µM in each case. For the same compound, the “Sclerostin Inhibition Assay; improvement over sclerostin alone.” value at sclerostin was “+ (+ indicates an IC100 > 10 μM)”.
Regarding `Cc1nccc2c1[nH]c1cc(Cl)ccc12` [Example 44, 7-chloro-1-methyl-9H-pyrido[3,4-b]indole], the IC100 (in assay [1] (setting [2]); with MC3T3 osteoblast cells (setting [3])) was less than 10 µM in each case. In addition, on sclerostin, the “Sclerostin Inhibition Assay; improvement over sclerostin alone.” value is given as “++ (++ indicates an IC100 < 10 μM)”.
As for `COc1ccc2c3ccnc(C)c3n(CCN(C)C)c2c1` [Example 7, 2-(7-methoxy-1-methyl-9H-pyrido[3,4-b]indol-9-yl)-N,N-dimethyl ethanamine], the IC100 (in assay [1] (setting [2]); in the assay with MC3T3 osteoblast cells (setting [3])) was less than 10 µM each time. Besides, on sclerostin, the “Sclerostin Inhibition Assay; improvement over sclerostin alone.” value is “++ (++ indicates an IC100 < 10 μM)”.
For the compound `Cc1nccc2c1[nH]c1cc(OCC3CC3)ccc12` [Example 46, 7-(cyclopropylmethoxy)-1-methyl-9H-pyrido[3,4-b]indole], the IC100 (in assay [1] (setting [2]); in the assay on MC3T3 osteoblast cells (setting [3])) was less than 10 µM in each case. In addition, the “Sclerostin Inhibition Assay; improvement over sclerostin alone.” value at sclerostin was “++ (++ indicates an IC100 < 10 μM)”.
On to `COc1ccc2c3ccnc(C)c3n(CCN3CCNCC3)c2c1` [Example 16, 7-methoxy-1-methyl-9-(2-(piperazin-1-yl)ethyl)-9H-pyrido[3,4-b]indole], for which the IC100 (in assay [1] (setting [2]); in the assay with MC3T3 osteoblast cells (setting [3])) was less than 10 µM each time. In addition, the “Sclerostin Inhibition Assay; improvement over sclerostin alone.” value at sclerostin is on record as “++ (++ indicates an IC100 < 10 μM)”.
Take `CC1CN(CCn2c3cc(O)ccc3c3ccnc(C(F)(F)F)c32)CC(C)O1` (stereo not drawn) [Example 31, 9-(2-(2,6-dimethylmorpholino)ethyl)-1-(trifluoromethyl)-9H-pyrido[3,4-b]indol-7-ol]: the IC100 (in assay [1] (setting [2]); with MC3T3 osteoblast cells (setting [3])) was less than 10 µM each time. Besides, the “Sclerostin Inhibition Assay; improvement over sclerostin alone.” value on sclerostin is given as “++ (++ indicates an IC100 < 10 μM)”.
Take `Cc1nccc2c1[nH]c1cc(OC3CC3)ccc12` [Example 42, 7-cyclopropoxy-1-methyl-9H-pyrido[3,4-b]indole]: the IC100 (in assay [1] (setting [2]); in the assay with MC3T3 osteoblast cells (setting [3])) was more than 10 µM each time. The “Sclerostin Inhibition Assay; improvement over sclerostin alone.” value on sclerostin is “+ (+ indicates an IC100 > 10 μM)”.
Consider `Oc1ccc2c3ccnc(C(F)(F)F)c3n(CCN3CCOCC3)c2c1` [Example 26, 9-(2-morpholinoethyl)-1-(trifluoromethyl)-9H-pyrido[3,4-b]indol-7-ol], for which the IC100 (in assay [1] (setting [2]); with MC3T3 osteoblast cells (setting [3])) was less than 10 µM throughout. Also, the “Sclerostin Inhibition Assay; improvement over sclerostin alone.” value at sclerostin is recorded as “++ (++ indicates an IC100 < 10 μM)”.
For “sclerostin protein: SOST (Sclerostin) protein; antagonizes Wnt3a signaling and inhibits mineralization and OCN secretion in the assays”, the “Sclerostin Inhibition of Mineralization; improvement over sclerostin alone.” value in assay [1] (setting [2]) is on record as “−”. In assay [1] (setting [4]), the effect on mineralization entry is recorded as “significant decrease in mineralization”. Besides, the “Sclerostin Inhibition Assay; improvement over sclerostin alone.” value with sclerostin is recorded as “−”. Also, in the assay with sclerostin (human embryonic cells, result in words), the “effect on Wnt3a signaling” value is on record as “antagonized Wnt3a signaling”. In the assay on MC3T3 osteoblast cells (setting [3]), the “OSTEOCALCIN (Bone Formation Marker)” value was “−”. The “effect on OCN secretion” value in the assay with MC3T3 osteoblast cells (setting [4]) was “nearly complete loss of OCN secretion”.
For the compound `COc1ccc2c3cc(F)nc(C)c3n(CCN3CCCCC3)c2c1` [Example 39, 3-fluoro-7-methoxy-1-methyl-9-(2-(piperidin-1-yl)ethyl)-9H-pyrido[3,4-b]indole], the IC100 (in assay [1] (setting [2]); in the assay on MC3T3 osteoblast cells (setting [3])) was less than 10 µM in each case. Further, the “Sclerostin Inhibition Assay; improvement over sclerostin alone.” value on sclerostin is given as “++ (++ indicates an IC100 < 10 μM)”.
Consider `CC(Cn1c2ccccc2c2ccccc21)N(C)C` (stereo not drawn) [Example 2, 1-(9H-carbazol-9-yl)-N,N-dimethylpropan-2-amine], for which the IC100 (in assay [1] (setting [2]); with MC3T3 osteoblast cells (setting [3])) was more than 10 µM each time. The “Sclerostin Inhibition Assay; improvement over sclerostin alone.” value on sclerostin is recorded as “+ (+ indicates an IC100 > 10 μM)”.
As for `COc1ccc2c(c1)[nH]c1c(C)nc(F)cc12` [Example 38, 3-fluoro-7-methoxy-1-methyl-9H-pyrido[3,4-b]indole], the IC100 (in assay [1] (setting [2]); in the assay on MC3T3 osteoblast cells (setting [3])) was less than 10 µM in each case. The “Sclerostin Inhibition Assay; improvement over sclerostin alone.” value at sclerostin was “++ (++ indicates an IC100 < 10 μM)”.
For the compound `CC1COCCN1CCn1c2cc(O)ccc2c2ccnc(C(F)(F)F)c21` (stereo not drawn) [Example 30, 9-(2-(3-methylmorpholino)ethyl)-1-(trifluoromethyl)-9H-pyrido[3,4-b] indol-7-ol], the IC100 (in assay [1] (setting [2]); in the assay with MC3T3 osteoblast cells (setting [3])) was less than 10 µM each time. Moreover, at sclerostin, the “Sclerostin Inhibition Assay; improvement over sclerostin alone.” value is “++ (++ indicates an IC100 < 10 μM)”.
Consider `Cc1nc(O)cc2c1[nH]c1cc(O)ccc12` [Example 20, 1-methyl-9H-pyrido[3,4-b]indole-3,7-diol], for which the IC100 (in assay [1] (setting [2]); with MC3T3 osteoblast cells (setting [3])) was more than 10 µM each time. Moreover, at sclerostin, the “Sclerostin Inhibition Assay; improvement over sclerostin alone.” value is on record as “+ (+ indicates an IC100 > 10 μM)”.
Take `COc1ccc2c3ccnc(C)c3n(C(C)CN(C)C)c2c1` (stereo not drawn) [Example 5, 2-(7-methoxy-1-methyl-9H-pyrido[3,4-b]indol-9-yl)-N,N-dimethylpropan-1-amine]: the IC100 (in assay [1] (setting [2]); with MC3T3 osteoblast cells (setting [3])) was less than 10 µM each time. For the same compound, the “Sclerostin Inhibition Assay; improvement over sclerostin alone.” value at sclerostin is “++ (++ indicates an IC100 < 10 μM)”.
Turning to `COc1ccc2c3ccnc(C(F)(F)F)c3n(CCN3CCN(C(=O)OC(C)(C)C)CC3)c2c1` [Example 24, t-butyl 4-(2-(7-methoxy-1-(trifluoromethyl)-9H-pyrido[3,4-b]indol-9-yl)ethyl)piperazine-1-carboxylate], the IC100 (in assay [1] (setting [2]); in the assay on MC3T3 osteoblast cells (setting [3])) was less than 10 µM in each case. Moreover, the “Sclerostin Inhibition Assay; improvement over sclerostin alone.” value at sclerostin is “++ (++ indicates an IC100 < 10 μM)”.
Regarding `COc1ccc2c3ccnc(C(F)(F)F)c3n(CCN3CCCCC3)c2c1` [Example 33, 7-methoxy-9-(2-(piperidin-1-yl)ethyl)-1-(trifluoromethyl)-9H-pyrido[3,4-b]indole], the IC100 (in assay [1] (setting [2]); in the assay on MC3T3 osteoblast cells (setting [3])) was less than 10 µM throughout. The “Sclerostin Inhibition Assay; improvement over sclerostin alone.” value on sclerostin is “++ (++ indicates an IC100 < 10 μM)”.
Turning to `Cc1nccc2c1[nH]c1cc(OC(C)(F)F)ccc12` [Example 43, 7-(1,1-difluoroethoxy)-1-methyl-9H-pyrido[3,4-b]indole], the IC100 (in assay [1] (setting [2]); in the assay with MC3T3 osteoblast cells (setting [3])) was less than 10 µM in each case. For the same compound, on sclerostin, the “Sclerostin Inhibition Assay; improvement over sclerostin alone.” value was “++ (++ indicates an IC100 < 10 μM)”.
In the case of `CCN(CC)CCCn1c2cc(OC)ccc2c2ccnc(C)c21` [Example 6, N,N-diethyl-3-(7-methoxy-1-methyl-9H-pyrido[3,4-b]indol-9-yl)propan-1-amine], the IC100 (in assay [1] (setting [2]); with MC3T3 osteoblast cells (setting [3])) was less than 10 µM each time. Also, the “Sclerostin Inhibition Assay; improvement over sclerostin alone.” value at sclerostin is listed as “++ (++ indicates an IC100 < 10 μM)”.

(Values after patent publication US11267814B2, “Compounds for bone growth” (OsteoQC Inc., priority 2013, dated 2022).)
